Row | melting point [°C] | Structure (SMILES)
1 | 143 | O=C(NCc1cccnc1)N(c1ccccc1)c1ccccc1
2 | 178 to 180 | COc1cc(OCCOCc2ccccc2)cc2nc(-c3cc(C)nc(C)c3)[nH]c(=O)c12
3 | 83 to 85 | C=CCOC(=O)CCC(C)(c1ccc(O)cc1)c1ccc(O)cc1
4 | 195 to 197 | CCOc1c(C(=O)c2ccccc2)cnc2[nH]ncc12
5 | 233 to 235 | CC(C)Oc1cccc(-c2ccc3cnc(Nc4ccc(C5CCN(CC(N)=O)CC5)cc4)nn23)c1
6 | 130 to 135 | COC(=O)c1ccc2cc(C(O)c3cccnc3)ccc2c1 (stereo not given)
7 | 150 to 152 | COc1ccc2c(c1)cc(-c1nnn(Cc3cccc(OCc4ccc5ccccc5n4)c3)n1)c(=O)n2CCCCl
8 | 232 to 236 | Cc1cn2c(n1)-c1ccccc1Nc1ccccc1-2
9 | 80 to 82 | CCCCCCCCCCCCCCOc1ccc(C(=O)NCCc2ccccn2)cc1
10 | 210 | OCc1cc2c(N=C3SC[C@@H]4Cc5ccccc5CN34)cccc2cn1
11 | 232 to 233 | CCN1C(=O)CCCc2cc(Nc3ncc(Cl)c(Nc4ccccc4C(=O)NC)n3)c(OC)cc21
12 | 127 | CC(NS(=O)(=O)c1cc(C(=O)CCl)ccc1Cl)c1ccccc1 (stereo not given)
13 | 90 to 91 | CCOC(=O)COc1ccc(Oc2ccc([N+](=O)[O-])cc2)c(Cl)c1Cl
14 | 41 to 42 | COC(=O)C1C(=O)CCC1CSc1ccccc1 (stereo not given)
15 | 117 to 118 | COCOc1cc(OC)ccc1C(=O)c1cccc(OCc2nc(-c3ccccc3)oc2C)c1
16 | 240 to 241 | CCOP(=O)(O)C(=Nc1ccc(-c2c[nH]cn2)cc1)NCCSC
17 | 201 to 204 | O=C1NC(=O)C(Cc2ccc3oc(Cc4ccc(O)cc4)nc3c2)S1 (stereo not given)
18 | 234 to 235 | CCNc1nc(-c2ccc(NC(=O)OCc3cccnc3)cc2)ccc1C(=O)NC
19 | 119 to 120 | O=C(NC(=NCCCCc1cccnc1)NCCCc1c[nH]cn1)c1ccccc1
20 | 224 to 226 | CCC=Cc1ncc(/C=C(\Cc2cccs2)C(=O)O)n1Cc1ccccc1Cl
21 | 67 to 68 | CN(Cc1ccccc1)C1(C#N)CCN(Cc2ccccc2)CC1
22 | 193 to 195 | O=C(O)C1(c2ccccc2)Cc2ccccc2C1
23 | 75 to 87 | COc1cc2c(cc1Nc1ncc(Cl)c(Nc3ccccc3S(=O)(=O)N(C)C)n1)CCN(CC(=O)N1CCC1)CC2
24 | 238 to 240 | COc1ccc(CNc2nc(SC)ncc2C(=O)Nc2cncnc2)cc1Cl
25 | 157 | CCOc1ccc2c(c1)C(C)(c1ccccc1Cl)C(=O)N2S(=O)(=O)c1ccc(C(=O)NC(C)(C)C)cc1 (stereo not given)
26 | 182 to 183 | CC(C)(C)c1cc(CCc2ccccc2NC(=O)NCC(C)(C)c2ccccc2F)cc(C(C)(C)C)c1O

Row | melting point [°C] | Structure (SMILES)
27 | 170 to 171 | Cc1ccccc1NC(=O)CN1CC2CCC(C1)N2S(=O)(=O)c1ccccc1Cl
28 | 222 to 225 | C[C@H](N)C(=O)NCc1cccc(Nc2n[nH]c3ncnc(Nc4cccc(Cl)c4)c23)c1
29 | 128 to 129 | COc1ccc2c(c1)c(CC(=O)OCC(=O)O)c(C)n2C(=O)c1ccc(F)c(F)c1
30 | > 250 | O=S(=O)(O)c1ccc(N(Cc2ccc(F)cc2)Cc2ccc(Cl)cc2)cc1
31 | 173 to 178 | N=C(N)NCCc1ccc(OCCC2Oc3ccccc3N(Cc3ccc4ccccc4c3)C2=O)cc1 (stereo not given)
32 | 131 to 135 | O=C(Cn1nnnc1-c1cc2ccccc2o1)OCCO
33 | 141 to 142 | CCOC(=O)c1cnn2c1N(C(=O)CCl)CC=C2c1cccc(C(F)(F)F)c1
34 | 138 | N#Cc1ccc2ccc(=O)n(CCN3CCC(N)CC3)c2c1
35 | 140 to 141 | NCCc1ccc(-n2cnc3cnc4ccc(Cl)cc4c32)cc1
36 | 109 to 110 | CCC1=C(Cl)C(=O)c2ccccc2C1=O
37 | 108 to 112 | CC(C)(C)c1ccc(-c2cc(-c3ccccc3)c(-c3ccccc3)s2)cc1
38 | 156 to 159 | COC(=O)COc1ccc2cc(-c3csc(-c4ccccc4)n3)ccc2c1Br
39 | 165 to 167 | O=c1cc(-c2ccccc2)cc2n1CCN2Cc1ccccc1
40 | 130 | CCOC(=O)c1c(Cc2cc3c(cc2Cl)OCO3)c(-c2ccccc2)nn1CC1CCCCC1
41 | 184 | O=S(=O)(c1cccc(-c2cc(-c3nc(-c4ccc(C(F)(F)F)cc4)cc(C(F)(F)F)n3)ccn2)c1)N1CCCC1
42 | 218 to 220 | C=CCN1C(C(=O)Nc2coc3ccccc3c2=O)C(=O)c2ccccc2S1(=O)=O (stereo not given)
43 | 192 to 193 | CCCCOc1nc(N)c2[nH]c(=O)n(CCCCN(CC(C)(C)O)S(=O)(=O)c3cccc(CC(=O)OC)c3)c2n1
44 | 228 to 229 | O=C(Nc1ccc2cc(CN3CCCCC3)ccc2c1)c1ccc(-c2ccc(Cl)cc2)nc1
45 | 242 to 245 | COC(=O)c1ccc(Cn2nc(O)c3ccc(NC(=O)CC4CCCC4)cc32)c(OC)c1
46 | 155 to 158 | Cn1ncnc1-c1ccc(C(=O)N2Cc3cccn3Cc3ccccc32)cc1
47 | 135 to 136 | CCOP(=O)(NCc1cccc(-c2nc(=O)c3ccccc3s2)n1)OCC
48 | 292 to 294 | CN(Cc1cccc2c1CN(C1CCC(=O)NC1=O)C2=O)C(=O)Nc1cccc2ccccc12 (stereo not given)
49 | 249 to 253 | CN(C(=O)c1nnc2ccccc2c1O)c1ccc(Cl)cc1
50 | 270 to 272 | Cc1cc2c(-c3cccc(C(=O)O)c3)c(CC(=O)Nc3ccc(Cl)cc3C(F)(F)F)c(=O)oc2cc1Cl
51 | 197 to 198 | Cc1cc(N2NCCNC2=O)cc(Cl)c1Cc1ccc(Cl)cc1
52 | 54 to 58 | COc1cc(CC(=O)NCCCc2ccc(C)c(C)c2)ccc1OCCN(CCO)CCO

Continued, compound first:

Row | Structure (SMILES) | melting point [°C]
53 | CCCCCCCCCCCCS(=O)(=O)N[C@H]1CCCNC(=O)C1 | 100 to 101
54 | O=C(NC[C@H]1CN(c2cc(F)c(N3CCC(n4cnnn4)CC3)c(F)c2)C(=O)O1)C1CC1 | 162 to 164
55 | Nc1nnnc(-c2c[nH]nn2)c1-c1cnnnn1 | 215
56 | CCC(CC)n1ncn(-c2ccc(N3CCNCC3)cc2)c1=O | 135 to 137
57 | CCc1nnc2n1-c1ccc(Cl)cc1C(c1ccccc1)=NC2 | 229 to 230
58 | CCOC(=O)CS(=O)(=O)Nc1ccccc1CC(=O)OC | 86 to 88
59 | CCC(=O)NCCC1CCc2cc(F)c(OC)cc21 (stereo not given) | 76 to 78
60 | O=c1ccc(S(=O)(=O)c2cc3cc(Cl)cc(Cl)c3[nH]2)n[nH]1 | > 250
61 | Cc1cccc(OC(=O)N2CCCC2=O)c1 | 58 to 59
62 | COC(=O)c1coc2c1C(=O)CCC2 | 100 to 102
63 | CCOC(=O)c1ccc(C=C(C)C)c(OC)c1 | 42
64 | CCCC1=C(C(=O)OCC)C(c2cccc(F)c2F)c2c[nH]nc2N1 (stereo not given) | 207
65 | CC(C)(C)C(Cl)=C(C#N)C#N | 52 to 53
66 | CSc1nccn1CC(=O)NC1C(=O)N2C(C(=O)O)=C(CSc3nnc(C)s3)CSC12 (stereo not given) | 220
67 | COC(=O)c1c([N+](=O)[O-])cccc1S(=O)(=O)NC(C)(C)C | 89 to 91
68 | Oc1cc2c(cc1O)OCC(c1ccc3c(c1)OCO3)C2 (stereo not given) | 163 to 164
69 | O=C(O)c1ccc(S(F)(F)(F)(F)F)cc1 | 188 to 190
70 | NC(=O)N(O)CCNC(=O)c1ccc(Cl)cc1 | 172 to 173
71 | CC(=O)N(c1ccc(O)cc1)N1CCOCC1 | 183 to 184
72 | CC(C)c1cccc(-c2nscc2C(=O)O)c1 | 143 to 157
73 | CC(=O)N1CCc2cc(Br)cc(C#N)c21 | 170 to 175
74 | Nc1cc(Cl)c(Cl)cc1NCCO | 120
75 | Cc1ccc(C(=O)NC(NC(=NC#N)Nc2ccc(Cl)nc2)C(C)(Cl)Cl)cc1 (stereo not given) | 198 to 200
76 | CCCCc1c2c(nc3c1CCCC3)CCCC2 | 35 to 37

Row | Structure (SMILES) | melting point [°C]
77 | CCOP(=O)(OCC)c1ccccc1 | 256
78 | CN(C(=O)C(Cl)(Cl)Cl)c1nc(Cl)c([N+](=O)[O-])s1 | 146 to 149
79 | CC(=O)Nc1c(C)c(C)c2c(c1C)CC(C)(C)O2 | 190
80 | CCCCc1ccc(C(=O)O)c(=O)[nH]1 | 149
81 | CC(C)(C)c1cc(OCCCCC(=O)O)cc(C(C)(C)C)c1 | 113 to 115
82 | C=Cc1cc(CNC(=O)NCc2ccc(C(C)(C)C)cc2)cc(C(F)(F)F)c1NS(C)(=O)=O | 134 to 136
83 | O=C(O)c1cc(N2C(=O)CCC2=O)cc([N+](=O)[O-])c1 | 285 to 290
84 | Cc1cc(-c2ccc(C(F)(F)F)cc2)cnc1N | 74
85 | Nc1cc(-n2cc(C(=O)O)c(=O)c3cc(F)c(NC4CC4)c(Cl)c32)c(F)cc1F | 141 to 143
86 | C[C@H]1[C@H](O)C(F)(F)C(=O)N1c1ccc(C#N)c(Cl)c1 | 133 to 139
87 | CC=C1CCC2C3CCC4CC(O)CCC4(C)C3C(=NO)CC12C (stereo not given) | 233 to 235
88 | CN1CCNC1=C(Br)[N+](=O)[O-] | 97
89 | CCCCCCCCCCCCCCCCS(=O)(=O)c1ccc(-n2c(=O)cc(N)n2C(=O)OCC)cc1 | 92
90 | CN(C)c1nc2n(n1)Cc1ccccc1-2 | 164 to 166
91 | CCN(C(=O)OCc1ccccc1)c1cc(Cl)c2c(c1)C(c1ccccc1F)=NC(C)(C)C(=O)N2C | 150 to 151
92 | CCNC(=S)c1c(Cl)cccc1[Si](C)(C)C | 158 to 159
93 | Cc1ccccc1CC(=NC#N)NC(NC(=O)CF)C(C)(C)C (stereo not given) | 151 to 152
94 | Cn1nnnc1CO/N=C(\C(=O)O)c1csc(N)n1 | 185
95 | NS(=O)(=O)c1cc(F)c(C(F)(F)F)cc1NC(=O)c1ccccc1 | 223
96 | CN(C(=O)OC(C)(C)C)c1ccc2onc(OCC(CO)NC(=O)OC(C)(C)C)c2c1 (stereo not given) | 109 to 112
97 | Cc1nn(-c2cc(C(=O)NS(=O)(=O)N(C)C(C)C)c(Cl)cc2F)c(=O)n1C(F)F | 118 to 122
98 | COC(=O)c1ccc(C=C(C)[N+](=O)[O-])c(Cl)c1 | 74 to 77
99 | CC(=O)OCC(=O)C1(OC(C)=O)C(C)CC2C3CCC4=CC(=O)C=CC4(C)C3(F)C=CC21C (stereo not given) | 135 to 136
100 | CCCCCCC/C=C\CCCCCCCC(=O)CCCNC(C)=O | 51 to 52

— a melting point compilation (Tetko et al.; mined from patent text by program, amines drawn as free bases though some values may be those of a salt)
